# In ChEMBL document CHEMBL3813626, “Synthesis, antimalarial properties and 2D-QSAR studies of novel triazole-quinine conjugates” (Bioorg Med Chem, 2016):
# Tested on: Plasmodium falciparum
# Experiment: Antimalarial activity against blood stage Plasmodium falciparum 3D7 infected in human erythrocytes assessed as reduction in parasitemia after 72 hrs by SYBR green I fluorescence-based method
# Assay type: functional, organism-based
# Conditions: 3D7, 72 h
structure (smiles),measurement,value
C=C[C@H]1CN2CC[C@H]1C[C@@H]2[C@H](OCCc1cn(Cc2ccccc2)nn1)c1ccnc2ccc(OC)cc12,IC50,30 nM
C=C[C@H]1CN2CC[C@H]1C[C@@H]2[C@H](OCc1cn(CC(=O)N[C@@H](Cc2ccccc2)C(=O)O)nn1)c1ccnc2ccc(OC)cc12,IC50,5500 nM
C=C[C@H]1CN2CC[C@H]1C[C@@H]2[C@H](OCCc1cn(-c2ccccc2Cl)nn1)c1ccnc2ccc(OC)cc12,IC50,37 nM
C=C[C@H]1CN2CC[C@H]1C[C@@H]2[C@H](OCc1cn(-c2ccccc2[N+](=O)[O-])nn1)c1ccnc2ccc(OC)cc12,IC50,1300 nM
C=C[C@H]1CN2CC[C@H]1C[C@@H]2[C@H](OCc1cn(-c2ccccc2Cl)nn1)c1ccnc2ccc(OC)cc12,IC50,20000 nM
C=C[C@H]1CN2CC[C@H]1C[C@@H]2[C@H](OCc1cn(-c2ccc([N+](=O)[O-])cc2)nn1)c1ccnc2ccc(OC)cc12,IC50,640 nM
C=C[C@H]1CN2CC[C@H]1C[C@@H]2[C@H](OCCc1cn(-c2ccc(Cl)cc2)nn1)c1ccnc2ccc(OC)cc12,IC50,41 nM
C=C[C@H]1CN2CC[C@H]1C[C@@H]2[C@H](OCc1cn([C@H](C(=O)O)C(C)C)nn1)c1ccnc2ccc(OC)cc12,IC50,20000 nM
C=C[C@H]1CN2CC[C@H]1C[C@@H]2[C@H](OCc1cn(-c2ccccc2C#N)nn1)c1ccnc2ccc(OC)cc12,IC50,1000 nM
C=C[C@H]1CN2CC[C@H]1C[C@@H]2[C@H](OCCc1cn(-c2ccccc2[N+](=O)[O-])nn1)c1ccnc2ccc(OC)cc12,IC50,3300 nM
C=C[C@H]1CN2CC[C@H]1C[C@@H]2[C@H](OCc1cn(-c2ccc(OC)cc2)nn1)c1ccnc2ccc(OC)cc12,IC50,2200 nM
C=C[C@H]1CN2CC[C@H]1C[C@@H]2[C@H](OCc1cn([C@@H](CC(C)C)C(=O)O)nn1)c1ccnc2ccc(OC)cc12,IC50,31000 nM
C=C[C@H]1CN2CC[C@H]1C[C@@H]2[C@H](OCCc1cn(-c2ccc(C)cc2)nn1)c1ccnc2ccc(OC)cc12,IC50,40 nM
C=C[C@H]1CN2CC[C@H]1C[C@@H]2[C@H](OCc1cn(-c2ccccn2)nn1)c1ccnc2ccc(OC)cc12,IC50,5700 nM
C=C[C@H]1CN2CC[C@H]1C[C@@H]2[C@H](OCCc1cn(-c2ccc(OC)cc2)nn1)c1ccnc2ccc(OC)cc12,IC50,43 nM
C=C[C@H]1CN2CC[C@H]1C[C@@H]2[C@H](OCc1cn(CCCc2ccccc2)nn1)c1ccnc2ccc(OC)cc12,IC50,890 nM
C=C[C@H]1CN2CC[C@H]1C[C@@H]2[C@H](OCc1cn(Cc2ccc(C)cc2)nn1)c1ccnc2ccc(OC)cc12,IC50,450 nM
C=C[C@H]1CN2CC[C@H]1C[C@@H]2[C@H](OCc1cn(/C=C/n2nnc3ccccc32)nn1)c1ccnc2ccc(OC)cc12,IC50,1500 nM
C=C[C@H]1CN2CC[C@H]1C[C@@H]2[C@H](OCc1cn(Cn2nnc3ccccc32)nn1)c1ccnc2ccc(OC)cc12,IC50,4800 nM
C=C[C@H]1CN2CC[C@H]1C[C@@H]2[C@H](OCc1cn(CC(OC)OC)nn1)c1ccnc2ccc(OC)cc12,IC50,3400 nM
C=C[C@H]1CN2CC[C@H]1C[C@@H]2[C@H](OCc1cn([C@@H](Cc2ccccc2)C(=O)O)nn1)c1ccnc2ccc(OC)cc12,IC50,7700 nM
C=C[C@H]1CN2CC[C@H]1C[C@@H]2[C@H](OCc1cn(Cc2ccc([N+](=O)[O-])cc2)nn1)c1ccnc2ccc(OC)cc12,IC50,1200 nM
C=C[C@H]1CN2CC[C@H]1C[C@@H]2[C@H](OCc1cn([C@@H](Cc2c[nH]c3ccccc23)C(=O)O)nn1)c1ccnc2ccc(OC)cc12,IC50,8400 nM
C=C[C@H]1CN2CC[C@H]1C[C@@H]2[C@H](OCc1cn(-c2cccc(C#N)c2)nn1)c1ccnc2ccc(OC)cc12,IC50,2000 nM
C=C[C@H]1CN2CC[C@H]1C[C@@H]2[C@H](OCc1cn([C@H](C(=O)N(CC)CC)C(C)C)nn1)c1ccnc2ccc(OC)cc12,IC50,880 nM
C=C[C@H]1CN2CC[C@H]1C[C@@H]2[C@H](OCc1cn(Cc2ccccc2)nn1)c1ccnc2ccc(OC)cc12,IC50,790 nM
C=C[C@H]1CN2CC[C@H]1C[C@@H]2[C@H](OCc1cn(-c2ccc(Cl)cc2)nn1)c1ccnc2ccc(OC)cc12,IC50,900 nM
C=C[C@H]1CN2CC[C@H]1C[C@@H]2[C@H](OCc1cn([C@@H](C)C(=O)O)nn1)c1ccnc2ccc(OC)cc12,IC50,41000 nM
C=C[C@H]1CN2CC[C@H]1C[C@@H]2[C@H](OCCc1cn(-c2ccc([N+](=O)[O-])cc2)nn1)c1ccnc2ccc(OC)cc12,IC50,345 nM
C=C[C@H]1CN2CC[C@H]1C[C@@H]2[C@H](OCCc1cn(CCCc2ccccc2)nn1)c1ccnc2ccc(OC)cc12,IC50,27 nM
C=C[C@H]1CN2CC[C@H]1C[C@@H]2[C@H](OCc1cn(CC(=O)N[C@@H](CC(C)C)C(=O)O)nn1)c1ccnc2ccc(OC)cc12,IC50,12000 nM
C=C[C@H]1CN2CC[C@H]1C[C@H]2[C@H](O)c1ccnc2ccc(OC)cc12 [QUININE],IC50,58 nM
